Assay results: ChEMBL document CHEMBL3351554, “Benzophenone C- and O-glucosides from Cyclopia genistoides (Honeybush) inhibit mammalian α-glucosidase” (2014)
The source made the active and inactive calls. The rule behind the calls is not given here.

Tests used:
[1] = organism: Rattus norvegicus; assay: Inhibition of rat intestinal alpha-glucosidase using 7-O-alpha-D-glucopyranosyl 4-methylumbelliferone preincubated for 15 mins at 100 to 400 uM prior substrate addition measured over 30 mins by fluorescence assay
[2] = system: 3T3-L1; assay: Increase in [3H]-2-DOG uptake in mouse 3T3L1 cells at 0.001 to 100 uM after 3 hrs by liquid scintillation counting relative to vehicle-treated control
[3] = system: HepG2/C3A; assay: Increase in [3H]-2-DOG uptake in human HepG2/C3A cells at 0.001 to 100 uM after 3 hr by liquid scintillation counting relative to vehicle-treated control
[4] = organism: Rattus norvegicus; assay: Inhibition of rat intestinal alpha-glucosidase using 7-O-alpha-D-glucopyranosyl 4-methylumbelliferone preincubated for 15 mins at 50 to 200 uM prior substrate addition measured over 30 mins by fluorescence assay
[5] = organism: Rattus norvegicus; assay: Inhibition of rat intestinal alpha-glucosidase using 7-O-alpha-D-glucopyranosyl 4-methylumbelliferone preincubated for 15 mins at 200 uM prior substrate addition measured over 30 mins by fluorescence assay
[6] = system: L6; assay: Increase in [3H]-2-DOG uptake in rat L6 cells at 10 uM after 1 hr by liquid scintillation counting relative to vehicle-treated control; assay type: functional

Row | inhibition [1] | inhibition [4] | inhibition [5] [%] | Compound | Activity [2] | Activity [3] | Activity [6] [%]
1 | Active |  |  | O=C(c1ccc(O)cc1)c1c(O)cc(O)c([C@@H]2O[C@H](CO)[C@@H](O)[C@H](O)[C@H]2O)c1O | Active | Active | 
2 |  | inactive |  | O=C(c1ccc(O)c(O)c1)c1c(O)cc(O)cc1O |  |  | 
3 |  |  | 54 | O=C(c1ccc(O)c(O)c1)c1c(O)cc(O)c([C@@H]2O[C@H](CO)[C@@H](O)[C@H](O)[C@H]2O)c1O |  |  | 
4 | Active |  | 43 | O=C(c1ccc(O)cc1)c1c(O)cc(O[C@@H]2O[C@H](CO)[C@@H](O)[C@H](O)[C@H]2O)c([C@@H]2O[C@H](CO)[C@@H](O)[C@H](O)[C@H]2O)c1O | Active | Active | 22
